Patent US9790230B2 (Hoffmann-La Roche Inc., priority 2015, dated 2017)
Read-outs that look alike come from different tables or passages of the source.

What was measured:
mouse TAAR1 = mouse TAAR1 (Mus musculus (Mouse), UniProt Q923Y8); test: Radioligand binding assay on mouse TAAR1
Protocol: Radioligand Binding Assay on Mouse TAAR1
Membrane Preparation and Radioligand Binding.
HEK-293 cells stably expressing mouse TAAR1 were maintained at 37° C. and 5% CO2 in DMEM high glucose medium, containing fetal calf serum (10%, heat inactivated for 30 min at 56° C.), penicillin/streptomycin (1%), and 375 μg/ml geneticin (Gibco). Cells were released from culture flasks using trypsin/EDTA, harvested, washed twice with ice-cold PBS (without Ca^2+ and Mg^2+), pelleted at 1'000 rpm for 5 min at 4° C., frozen and stored at −80° C. Frozen pellets were suspended in 20 ml HEPES-NaOH (20 mM, pH 7.4) containing 10 mM EDTA and homogenized with a Polytron (PT 6000, Kinematica) at 14'000 rpm for 20 s. The homogenate was centrifuged at 48'000×g for 30 min at 4° C. Subsequently, the supernatant was removed and discarded, and the pellet resuspended in 20 ml HEPES-NaOH (20 mM, pH 7.4) containing 0.1 mM EDTA using the Polytron (20 s at 14'000 rpm). This procedure was repeated and the final pellet resuspended in HEPES-NaOH containing 0.1 mM EDTA and homogenized using the Polytron. Typically, aliquots of 2 ml membrane portions were stored at −80° C. With each new membrane batch the dissociation constant (Kd) was determined via a saturation curve. The TAAR1 radioligand ^3[H]—(S)-4-[(ethyl-phenyl-amino)-methyl]-4,5-dihydro-oxazol-2-ylamine (described in WO 2008/098857) was used at a concentration equal to the calculated Kd value, that was usually around 0.7 nM, resulting in the binding of approximately 0.5% of the radioligand and a specific binding representing approximately 70% of the total binding. Nonspecific binding was defined as the amount of ^3[H]—(S)-4-[(ethyl-phenyl-amino)-methyl]-4,5-dihydro-oxazol-2-ylamine bound in the presence of 10 M unlabeled ligand. All compounds were tested at a broad range of concentrations (10 pM to 10 μM) in duplicates. […] The 96 deep well plates were incubated for 1 hr at 4° C. Incubations were terminated by rapid filtration through Unifilter-96 plates (Packard Instrument Company) and glass filters GF/C (Perkin Elmer) presoaked for 1 hr in polyethylenimine (0.3%) and washed 3 times with 1 ml of cold binding buffer. After addition of 45 μl of Microscint 40 (PerkinElmer) the Unifilter-96 plate was sealed and after 1 hr the radioactivity counted using a TopCount Microplate Scintillation Counter (Packard Instrument Company).

rat TAAR1 = rat TAAR1 (Rattus norvegicus (Rat), UniProt Q923Y9); test: Radioligand binding assay on rat TAAR1;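 further: membranes from HEK293 cells stably transfected with rat TAAR1, tritiated TAAR1 radioligand, 1 h incubation at 4 °C, nonspecific binding determined with excess unlabeled ligand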
Chain of rat TAAR1 (Q923Y9 whole entry): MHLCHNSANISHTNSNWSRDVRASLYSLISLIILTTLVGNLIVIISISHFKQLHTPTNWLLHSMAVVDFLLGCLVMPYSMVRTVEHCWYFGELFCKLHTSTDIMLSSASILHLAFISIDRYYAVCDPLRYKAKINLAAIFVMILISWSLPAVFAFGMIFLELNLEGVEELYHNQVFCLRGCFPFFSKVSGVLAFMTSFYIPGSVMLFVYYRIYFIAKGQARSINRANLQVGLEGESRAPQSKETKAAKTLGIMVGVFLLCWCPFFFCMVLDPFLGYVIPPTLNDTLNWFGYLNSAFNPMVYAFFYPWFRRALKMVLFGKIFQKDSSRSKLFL

Chain of mouse TAAR1 (Q923Y8 whole entry): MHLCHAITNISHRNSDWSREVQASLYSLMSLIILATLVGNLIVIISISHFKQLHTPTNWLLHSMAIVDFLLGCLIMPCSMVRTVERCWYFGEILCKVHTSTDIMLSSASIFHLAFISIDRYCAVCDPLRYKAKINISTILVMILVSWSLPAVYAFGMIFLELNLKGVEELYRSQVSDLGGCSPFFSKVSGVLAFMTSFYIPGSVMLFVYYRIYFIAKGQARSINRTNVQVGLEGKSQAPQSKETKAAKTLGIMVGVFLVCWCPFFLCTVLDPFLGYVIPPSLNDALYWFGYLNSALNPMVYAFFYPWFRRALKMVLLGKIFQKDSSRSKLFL

Ki (mouse TAAR1) [µM] | Ki (rat TAAR1) [µM] | SMILES | Ki (mouse TAAR1; read-out: Ki (μM) mouse, mouse TAAR1, HEK-293 membranes, first value of cell mouse/rat) [µM] | Ki (rat TAAR1; read-out: Ki (μM) rat, rat TAAR1, HEK-293 membranes, second value of cell mouse/rat) [µM]
0.0613 | 2.67 | O=C(Nc1ccc([C@H]2O[C@@H]3CN[C@H]2C3)cc1)c1[nH]nc(C2CC2)c1Cl [Example 37, 4-Chloro-3-cyclopropyl-N-[4-[(1S,3R,4S)-2-oxa-5-azabicyclo[2.2.1]heptan-3-yl]phenyl]-1H-pyrazole-5-carboxamide] | – | –
– | – | O=C(Nc1ccc([C@@H]2O[C@H]3CN[C@@H]2C3)cc1)c1[nH]nc(C2CC2)c1Cl [Example 82, 4-Chloro-3-cyclopropyl-N-[4-[(1R,3S,4R)-2-oxa-5-azabicyclo[2.2.1]heptan-3-yl]phenyl]-11H-pyrazole-5-carboxamide] | 0.0035 | 0.0339
0.0046 | 0.21 | O=C(Nc1ccc([C@H]2O[C@@H]3CN[C@H]2C3)cc1)c1cccc(Cl)c1 [Example 8, 3-Chloro-N-[4-[(1S,3R,4S)-2-oxa-5-azabicyclo[2.2.1]heptan-3-yl]phenyl]benzamide] | – | –
0.005 | 0.192 | O=C(Nc1ccc([C@H]2O[C@@H]3CN[C@H]2C3)cc1)c1ccc(Cl)cc1 [Example 14, 4-Chloro-N-[4-[(1S,3R,4S)-2-oxa-5-azabicyclo[2.2.1]heptan-3-yl]phenyl]benzamide] | – | –
0.0034 | 0.593 | O=C(NCc1ccc(C(F)(F)F)cc1)c1ccc([C@H]2O[C@@H]3CN[C@H]2C3)cc1 [Example 63, 4-[(1S,3R,4S)-2-Oxa-5-azabicyclo[2.2.1]heptan-3-yl]-N-[[4-(trifluoromethyl)phenyl]methyl]benzamide] | – | –
0.0172 | > 15 | O=C(CCC(F)(F)F)Nc1ccc([C@H]2O[C@@H]3CN[C@H]2C3)cc1 [Example 84, 4,4,4-Trifluoro-N-[4-[(1S,3R,4S)-2-oxa-5-azabicyclo[2.2.1]heptan-3-yl]phenyl]butanamide] | – | –
0.0098 | 0.673 | Cc1n[nH]c(C(=O)Nc2ccc([C@H]3O[C@@H]4CN[C@H]3C4)cc2)c1Cl [Example 46, 4-Chloro-3-methyl-N-[4-[(1S,3R,4S)-2-oxa-5-azabicyclo[2.2.1]heptan-3-yl]phenyl]-1H-pyrazole-5-carboxamide] | – | –
0.0034 | 0.0438 | O=C(Nc1ccc([C@H]2O[C@@H]3CN[C@H]2C3)cc1)c1ccc(OCC(F)(F)F)cn1 [Example 51, N-[4-[(1S,3R,4S)-2-Oxa-5-azabicyclo[2.2.1]heptan-3-yl]phenyl]-5-(2,2,2-trifluoroethoxy)pyridine-2-carboxamide] | – | –
0.0009 | 0.0501 | O=C(Nc1ccc(Br)cc1)c1ccc([C@H]2O[C@@H]3CN[C@H]2C3)cc1 [Example 56, N-(4-Bromophenyl)-4-[(1S,3R,4S)-2-oxa-5-azabicyclo[2.2.1]heptan-3-yl]benzamide] | – | –

SMILES | Ki (mouse TAAR1) [µM] | Ki (rat TAAR1) [µM] | Ki (mouse TAAR1; read-out: Ki (μM) mouse, mouse TAAR1, HEK-293 membranes, first value of cell mouse/rat) [µM] | Ki (rat TAAR1; read-out: Ki (μM) rat, rat TAAR1, HEK-293 membranes, second value of cell mouse/rat) [µM]
FC(F)(F)c1cnc(Nc2ccc([C@@H]3O[C@H]4CN[C@@H]3C4)cc2)nc1 [Example 31, N-[4-[(1R,3S,4R)-2-Oxa-5-azabicyclo[2.2.1]heptan-3-yl]phenyl]-5-(trifluoromethyl)pyrimidin-2-amine] | 0.0221 | 0.0777 | – | –
c1ccc([C@@H]2O[C@H]3CN[C@@H]2C3)cc1 [Example 6, (1R,3S,4R)-3-Phenyl-2-oxa-5-azabicyclo[2.2.1]heptane] | 1.54 | 0.814 | – | –
Clc1ccc(Nc2ccc([C@H]3O[C@@H]4CN[C@H]3C4)cc2)nc1 [Example 20, 5-Chloro-N-[4-[(1S,3R,4S)-2-oxa-5-azabicyclo[2.2.1]heptan-3-yl]phenyl]pyridin-2-amine] | 0.0041 | 0.397 | – | –
O=C(Nc1ccc(Cl)cc1)Nc1ccc([C@H]2O[C@@H]3CN[C@H]2C3)cc1 [Example 33, 1-(4-Chlorophenyl)-3-[4-[(1S,3R,4S)-2-oxa-5-azabicyclo[2.2.1]heptan-3-yl]phenyl]urea] | 0.0035 | 0.0116 | – | –
